Measured values from US20230046078A1, “METHODS OF USING SUBSTITUTED FLAVONES FOR TREATING BONE DISORDERS” (EMORY UNIVERSITY, priority 2021, published 2023).
“Also recorded” adds a separate entry of the source.

Columns and labels:
[1] = tested on: MC3T3-E1 cells; experiment: ELISA of OPG and RANK-L secreted into the medium of MC3T3 cells; assay type: cell-based, Murine; details: OIM; vs OIM alone
Source text: FIG. 9, Panel A contains representative images of ALP staining in […] cells treated with BDNF or 7,8-DHF combined with or without K252a for 14 days (n=3 independent experiments) (Scale bar, 5 mm (upper panel), 200 μm (lower panel)). […] FIG. 9, Panel C contains Western blots for MC3T3 cells cultured in complete medium or osteogenic induction medium (OIM) with BDNF or 7,8 DHF combined with or without K252a for 4 days. […] FIG. 9, Panel D contains graphs of the relative protein levels of C/EBPP, p-C/EBPβ, AEP, RANK-L, OPG, Osterix, p-TrkB/TrkB and p-Akt/AKT in MC3T3 cells cultured in the complete medium or OIM with BDNF or 7,8-DHF combined with or without K252a for four days. Data are shown as mean±SEM of three independent experiments, one-way ANOVA. Data are shown in each graph from left to right as 1) Control, 2) OIM+DMSO, 3) OIM+BDNF, 4) OIM+7,8-DHF, 5) OIM+BDNF+K252a, and 6) OIM+7,8-DHF+K252a. FIG. 9, Panel E contains graphs of an AEP enzymatic activity assay. BDNF and 7,8-DHF inhibit AEP activities, and K252a abolish BDNF and 7,8-DHF's effects. Data are shown as mean±SEM of 3 independent experiments, one-way ANOVA. Data are shown in each graph from left to right as 1) Control, 2) OIM+DMSO, 3) OIM+BDNF, 4) OIM+7,8-DHF, 5) OIM+BDNF+K252a, and 6) OIM+7,8-DHF+K252a. FIG. 9, Panel F contains graphs of qPCR results showing that OPG mRNA expression increases in MC3T3 cells after 7,8-DHF treatment for four days. Data are shown as mean±SEM of three independent experiments, one-way ANOVA. Data are shown in each graph from left to right as 1) Control, 2) OIM+DMSO, 3) OIM+BDNF, 4) OIM+7,8-DHF, 5) OIM+BDNF+K252a, and 6) OIM+7,8-DHF+K252a. FIG. 9, Panel G contains graphs showing that 7,8-DHF increases OPG and decreases the RANK-L/OPG ratio. Levels of OPG and RANK-L proteins secreted into the medium were measured by ELISA. Data are shown as mean±SEM of 3 independent experiments, one-way ANOVA. Data are shown in each graph from left to right as 1) Control, 2) OIM+DMSO, 3) OIM+BDNF, 4) OIM+7,8-DHF, 5) OIM+BDNF+K252a, and 6) OIM+7,8-DHF+K252a.

[2] = tested on: MC3T3-E1 cells; details: OIM
Method: MC3T3-E1 cells were seeded onto plates in complete medium and cultured for 24 days, until the cells reached 70% confluence.
MC3T3-E1 and RAW 264.7 cells were washed with ice-cold PBS and lysed in (50 mM Tris, pH 7.4, 40 mM NaCl, 1 mM EDTA, 0.5% Triton X-100, 1.5 mM Na3VO4, 50 mM NaF, 10 mM sodium pyrophosphate, 10 mM sodium β-glycerophosphate, supplemented with protease inhibitor cocktail) at 4° C. for 0.5 h, and centrifuged for 25 min at 15,000 rpm. The supernatant was boiled in SDS loading buffer. After SDS-PAGE, the samples were transferred to a nitrocellulose membrane. The membrane was blocked with TBS containing 5% nonfat milk and 0.1% Tween 20 (TBST) at room temperature for 2 hours, followed by the incubation with primary antibody at 4° C. overnight, and with the secondary antibody at room temperature for 2 hours. After washing with TBST, the membrane was developed using the enhanced chemiluminescent (ECL) detection system.
To further interrogate the molecular mechanism of 7,8-DHF in promoting OPG expression, a time course study in MC3T3-E1 cells in the presence of OIM was conducted.

[3] = tested on: MC3T3-E1 cells; assay type: cell-based, Murine; details: OIM, 4 days
[4] = tested on: BDNF/TrkB signaling; experiment: Immunoblotting of p-TrkB signaling in bone marrow after oral R13; assay type: in vivo, mice; details: R13-derived 7,8-DHF after oral administration of R13
[5] = tested on: TrkB; details: primary neurons; read-out: EC50 for activating TrkB; cited from earlier work
[6] = tested on: MC3T3-E1 cells; assay type: cell-based, Murine; details: OIM, four days
Method: Total RNA was isolated by TRIzol (Life Technologies, Carlsbad, Calif.). Reverse transcription was performed with SuperScript III reverse transcriptase (Life Technologies). Gene-specific primers and probes were designed and bought from Taqman (Life Technologies). All real-time PCR reactions were performed using the ABI 7500-Fast Real-Time PCR System and the Taqman Universal Master Mix Kit (Life Technologies). The relative quantification of gene expression was calculated using the ΔΔCt method. Predesigned real-time PCR primers from Applied Biosystems (Waltham, Mass.) were used for the analysis of Opg (Tnfrsf11b; Mm0043545_m1), RANK-L (Tnfsf11; Mm00441908_m1), AEP (Lgmn; Mm01325350_m1), GAPDH (Gapdh; Mm99999915_g1).

[7] = tested on: AEP; experiment: AEP activity assay on MC3T3-E1 cell lysates; assay type: cell-based, Murine; details: MC3T3 cells in OIM; substrate Z-Ala-Ala-Asn-AMC
Method: Cell lysates (10 μg) were incubated in 200 μl assay buffer (20 mM citric acid, 60 mM Na2HPO4, 1 mM EDTA, 0.1% CHAPS, and 1 mM DTT, pH 6.0) containing 20 μM δ-secretase substrate Z-Ala-Ala-Asn-AMC (Bachem, Bubendorf, Switzerland). AMC released by substrate cleavage was quantified by measuring at 460 nm in a fluorescence plate reader at 37° C. for 2 h in kinetic mode.

O=c1cc(-c2ccccc2)oc2c(O)c(O)ccc12 [7,8-DHF]
OPG protein secreted into the medium [1]: further augmented; also recorded: increases | RANK-L protein secreted into the medium [1]: further augmented | RANK-L/OPG ratio (ELISA) [1]: OIM alone were significantly higher than BDNF and 7,8-DHF; also recorded: decreases | CREB or c-Jun levels ([2]; siRNA experiment): without interfering | p-Akt ([2]; time course 0-60 min): activated | p-C/EBPβ signal ([2]; time course 0-60 min): time-dependently increased | p-CREB signal ([2]; time course 0-60 min): time-dependently increased | p-MAPK ([2]; time course 0-60 min): activated | p-TrkB ([2]; time course 0-60 min): activated | p-c-Jun signal ([2]; time course 0-60 min): time-dependently increased | AEP expression [3]: diminished | RANK-L protein (Western blot) [3]: augmentation | BDNF/TrkB signaling in the bone marrow (p-TrkB, AKT, MAPK phosphorylation) [4]: activates | EC50 [5]: ~50 nM | RANK-L mRNA [6]: elevated | AEP protease activities [7]: greatly blocked; also recorded: inhibit
